The nature of the series: Level reaching in blood plasma of rat or human was determined. In kind it is ADME, cell-free.

The source of these data is ChEMBL document CHEMBL1146664, “Cytochrome P450/NADPH-dependent formation of trans epoxides from trans-arachidonic acids” (Bioorg Med Chem Lett, 2004).

Consider `CCCCC/C=C/C/C=C\C/C=C\C/C=C\CCCC(=O)O`, for which the Activity came out at 0.5 µM.

Compound `CCCCCC1OC1C/C=C\C/C=C\C/C=C\CCCC(=O)O` (trans isomer) returned an Activity of 0.5 µM.

`CCCCCC(O)C(O)C/C=C\C/C=C\C/C=C\CCCC(=O)O` (stereo not given): the Activity was 0.5 µM.

As for `CCCCC/C=C/CC1OC1C/C=C\C/C=C\CCCC(=O)O` (stereo not given), the Activity turned out to be 0.5 µM.

Compound `CCCCC/C=C/CC(O)C(O)C/C=C\C/C=C\CCCC(=O)O` (trans isomer) showed an Activity of 0.5 µM.
